Results published in patent US20190282569A1, “STABLE PHARMACEUTICAL COMPOSITION” (ASTELLAS PHARMA INC., priority 2016, published 2019).

Tests used:
[1] = Stability of the drug substance itself; type: physicochemical; settings: drug substance alone, without pharmaceutical additives
[2] = test system: epidermal growth factor receptor (EGFR) mutant kinase; settings: disclosed in Patent literature 1 (WO 2013/108754); cited from earlier work

stability of the drug itself (in words) [1] | SMILES | inhibitory action on an epidermal growth factor receptor (EGFR) mutant kinase [2]
stable | C=CC(=O)N1CC[C@@H](Oc2nc(Nc3ccc(N4CCC(N5CCN(C)CC5)CC4)cc3)c(C(N)=O)nc2CC)C1.CS(=O)(=O)O [compound A monomethanesulfonate, 5-{[(3R)-1-acryloylpyrrolidin-3-yl]oxy}-6-ethyl-3-({4-[4-(4-methylpiperazin-1-yl)piperidin-1-yl]phenyl}amino)-pyrazine-2-carboxamide monomethanesulfonate] | –
– | C=CC(=O)N1CC[C@@H](Oc2nc(Nc3ccc(N4CCC(N5CCN(C)CC5)CC4)cc3)c(C(N)=O)nc2CC)C1 [compound A, 5-{[(3R)-1-Acryloylpyrrolidin-3-yl]oxy}-6-ethyl-3-({4-[4-(4-methylpiperazin-1-yl)piperidin-1-yl]phenyl}amino)-pyrazine-2-carboxamide] | confirmed
